Molecular target: T1, BRM (Homo sapiens, UniProt P51531)
T1 construct: Western Blot Screen of BRM Degradation in SW1573 Cells; endogenous in cells; host or cells: SW1573 cells
Assay: BRM degradation (Dmax and DC50) in SW1573 cells, Western blot screen / In-Cell Western screen
Type: cell-based
Details: overnight (18-20 hours) treatment; for Dmax: read-out: Dmax (%)** (% degraded)
Summary of the method: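 Dmax and DC50 were derived from BRM levels normalised to an alpha-tubulin control, measured by chemiluminescent Western blotting of lysates or by PFA-fixed In-Cell Western on LI-COR Odyssey. SW1573 cells received compound overnight (18–20 h, 0.1% DMSO final).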

T1 sequence (P51531 whole entry): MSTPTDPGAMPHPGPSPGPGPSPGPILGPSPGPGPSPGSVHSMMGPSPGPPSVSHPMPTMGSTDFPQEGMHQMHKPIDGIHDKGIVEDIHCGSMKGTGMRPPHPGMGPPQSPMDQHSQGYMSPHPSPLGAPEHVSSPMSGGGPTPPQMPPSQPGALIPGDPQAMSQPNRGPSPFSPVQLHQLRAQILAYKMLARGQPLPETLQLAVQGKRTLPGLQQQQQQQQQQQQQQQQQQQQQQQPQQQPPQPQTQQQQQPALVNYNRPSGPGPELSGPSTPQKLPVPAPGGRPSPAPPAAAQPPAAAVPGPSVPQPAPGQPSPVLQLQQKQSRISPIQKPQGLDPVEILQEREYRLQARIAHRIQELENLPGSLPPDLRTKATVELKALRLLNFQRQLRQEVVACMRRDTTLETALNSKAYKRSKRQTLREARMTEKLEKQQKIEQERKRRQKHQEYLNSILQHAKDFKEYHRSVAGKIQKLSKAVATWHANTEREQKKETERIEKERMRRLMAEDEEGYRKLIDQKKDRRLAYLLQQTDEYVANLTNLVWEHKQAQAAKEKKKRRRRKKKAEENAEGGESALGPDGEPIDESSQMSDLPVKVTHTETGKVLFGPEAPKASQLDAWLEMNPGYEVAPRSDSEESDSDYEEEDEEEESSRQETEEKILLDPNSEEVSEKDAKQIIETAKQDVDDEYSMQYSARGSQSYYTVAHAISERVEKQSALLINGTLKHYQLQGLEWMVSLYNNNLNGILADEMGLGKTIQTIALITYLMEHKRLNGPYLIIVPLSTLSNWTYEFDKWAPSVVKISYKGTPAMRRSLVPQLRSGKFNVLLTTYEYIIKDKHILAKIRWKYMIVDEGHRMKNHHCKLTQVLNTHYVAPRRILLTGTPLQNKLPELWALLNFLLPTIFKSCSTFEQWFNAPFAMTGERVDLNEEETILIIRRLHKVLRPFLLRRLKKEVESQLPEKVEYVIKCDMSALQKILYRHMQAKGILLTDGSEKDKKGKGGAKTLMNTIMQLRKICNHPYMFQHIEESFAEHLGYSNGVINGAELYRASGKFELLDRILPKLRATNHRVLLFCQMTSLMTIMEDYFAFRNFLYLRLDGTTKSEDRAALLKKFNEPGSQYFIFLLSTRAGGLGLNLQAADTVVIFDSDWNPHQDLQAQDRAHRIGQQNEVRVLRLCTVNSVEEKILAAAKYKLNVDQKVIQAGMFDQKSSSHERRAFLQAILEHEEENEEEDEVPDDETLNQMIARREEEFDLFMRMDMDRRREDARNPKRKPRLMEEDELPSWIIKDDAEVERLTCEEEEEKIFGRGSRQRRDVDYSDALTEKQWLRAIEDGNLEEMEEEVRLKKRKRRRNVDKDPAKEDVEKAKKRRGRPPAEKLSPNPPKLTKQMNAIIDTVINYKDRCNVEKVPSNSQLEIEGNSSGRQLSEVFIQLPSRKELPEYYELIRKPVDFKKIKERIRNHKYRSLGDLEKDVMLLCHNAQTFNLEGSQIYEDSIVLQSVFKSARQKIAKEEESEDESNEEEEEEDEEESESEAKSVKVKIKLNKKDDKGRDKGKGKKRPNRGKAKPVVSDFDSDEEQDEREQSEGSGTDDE

Structure (SMILES) | DC50 | Dmax
CC(C)[C@H](C(=O)N1C[C@H](O)C[C@H]1C(=O)N[C@@H](C)c1ccc(-c2scnc2C#CCOCCOCCOCCOCCOc2cc(N3C4CCC3CN(c3cc(-c5ccccc5O)nnc3N)C4)ccn2)cc1)N1Cc2ccccc2C1=O [Compound 82, (2S,4R)-N-[(1S)-1-[4-(4-{1-[(4-{3-[3-amino-6-(2-hydroxyphenyl)pyridazin-4-yl]-3,8-diazabicyclo[3.2.1]octan-8-yl}pyridin-2-yl)oxy]-3,6,9,12-tetraoxapentadec-14-yn-15-yl}-1,3-thiazol-5-yl)phenyl]ethyl]-4-hydroxy-1-[(2R)-3-methyl-2-(1-oxo-2,3-dihydro-1H-isoindol-2-yl)butanoyl]pyrrolidine-2-carboxamide] | ≥ 30 nM | –
Cc1ncsc1-c1ccc([C@H](C)NC(=O)[C@@H]2C[C@@H](O)CN2C(=O)[C@@H](c2cc(N3CCC(O[C@H]4CC[C@H](Oc5cc(N6C7CCC6CN(c6cc(-c8ccccc8O)nnc6N)C7)ccn5)CC4)CC3)no2)C(C)C)cc1 [Compound 136, (2S,4R)-4-hydroxy-N-[(1S)-1-[4-(4-methyl-1,3-thiazol-5-yl)phenyl]ethyl]-1-[(2R)-3-methyl-2-[3-(4-{[(1r,4r)-4-[(4-{3-[3-amino-6-(2-hydroxyphenyl)pyridazin-4-yl]-3,8-diazabicyclo[3.2.1]octan-8-yl}pyridin-2-yl)oxy]cyclohexyl]oxy}piperidin-1-yl)-1,2-oxazol-5-yl]butanoyl]pyrrolidine-2-carboxamide] | < 2.5 nM | > 75%
Cc1ncsc1-c1ccc([C@H](C)NC(=O)[C@@H]2C[C@@H](O)CN2C(=O)[C@@H](c2cc(N3CCC(CN4CCC(O[C@H]5C[C@H](N6CCC(C#N)(CN7C8CCC7CN(c7cc(-c9ccccc9O)nnc7N)C8)CC6)C5)CC4)CC3)no2)C(C)C)cc1 [Compound 20, (2S,4R)-4-hydroxy-N-[(1S)-1-[4-(4-methyl-1,3-thiazol-5-yl)phenyl]ethyl]-1-[(2R)-3-methyl-2-{3-[4-({4-[(1r,3r)-3-[4-({3-[3-amino-6-(2-hydroxyphenyl)pyridazin-4-yl]-3,8-diazabicyclo[3.2.1]octan-8-yl}methyl)-4-cyanopiperidin-1-yl]cyclobutoxy]piperidin-1-yl}methyl)piperidin-1-yl]-1,2-oxazol-5-yl}butanoyl]pyrrolidine-2-carboxamide] | < 2.5 nM | > 75%
Cc1ncsc1-c1ccc([C@H](C)NC(=O)[C@@H]2C[C@@H](O)CN2C(=O)[C@@H](c2cc(OCCOC(=O)N3CCC(O[C@H]4C[C@H](Oc5cc(N6C7CCC6CN(c6cc(-c8ccccc8O)nnc6N)C7)ccn5)C4)CC3)no2)C(C)C)cc1 [Compound 127, 2-({5-[(2R)-1-[(2S,4R)-4-hydroxy-2-{[(1S)-1-[4-(4-methyl-1,3-thiazol-5-yl)phenyl]ethyl]carbamoyl}pyrrolidin-1-yl]-3-methyl-1-oxobutan-2-yl]-1,2-oxazol-3-yl}oxy)ethyl 4-[(1r,3r)-3-[(4-{3-[3-amino-6-(2-hydroxyphenyl)pyridazin-4-yl]-3,8-diazabicyclo[3.2.1]octan-8-yl}pyridin-2-yl)oxy]cyclobutoxy]piperidine-1-carboxylate] | ≥ 30 nM | –
Cc1ncsc1-c1ccc([C@H](C)NC(=O)C2C[C@@H](O)CN2C(=O)[C@@H](c2cc(N3CCC(CN4CC[C@H](Oc5cc(N6C7CCC6CN(c6cc(-c8ccccc8O)nnc6N)C7)ccn5)[C@H](F)C4)CC3)no2)C(C)C)cc1 (stereo in doubt) [Compound 50, (2S,4R)-1-[(2R)-2-[3-(4-{[(3R,4S)-4-[(4-{3-[3-amino-6-(2-hydroxyphenyl)pyridazin-4-yl]-3,8-diazabicyclo[3.2.1]octan-8-yl}pyridin-2-yl)oxy]-3-fluoropiperidin-1-yl]methyl}piperidin-1-yl)-1,2-oxazol-5-yl]-3-methylbutanoyl]-4-hydroxy-N-[(1S)-1-[4-(4-methyl-1,3-thiazol-5-yl)phenyl]ethyl]pyrrolidine-2-carboxamide] | < 2.5 nM | > 75%
CC(C)[C@@H](C(=O)N1C[C@H](O)C[C@H]1C(=O)N[C@@H](C)c1ccc(-c2ccnn2C)cc1)c1cc(N2CCC(CN3CCC(CN4CCC5(CC4)CC(Oc4cc(N6C7CCC6CN(c6cc(-c8ccccc8O)nnc6N)C7)ccn4)C5)CC3)CC2)no1 [Compound 39, (2S,4R)-1-[(2R)-2-[3-(4-{[4-({2-[(4-{3-[3-amino-6-(2-hydroxyphenyl)pyridazin-4-yl]-3,8-diazabicyclo[3.2.1]octan-8-yl}pyridin-2-yl)oxy]-7-azaspiro[3.5]nonan-7-yl}methyl)piperidin-1-yl]methyl}piperidin-1-yl)-1,2-oxazol-5-yl]-3-methylbutanoyl]-4-hydroxy-N-[(1S)-1-[4-(1-methyl-1H-pyrazol-5-yl)phenyl]ethyl]pyrrolidine-2-carboxamide] | < 2.5 nM | > 75%
Cc1ncsc1-c1ccc([C@H](C)NC(=O)[C@@H]2C[C@@H](O)CN2C(=O)[C@@H](c2cc(N3CCC(CN4CC[C@@H](OC(=O)N5CCN(c6cc(-c7ccccc7O)nnc6N)CC5)[C@H](F)C4)CC3)no2)C(C)C)cc1 [Compound 102, (3R,4R)-3-fluoro-1-[(1-{5-[(2R)-1-[(2S,4R)-4-hydroxy-2-{[(1S)-1-[4-(4-methyl-1,3-thiazol-5-yl)phenyl]ethyl]carbamoyl}pyrrolidin-1-yl]-3-methyl-1-oxobutan-2-yl]-1,2-oxazol-3-yl}piperidin-4-yl)methyl]piperidin-4-yl 4-[3-amino-6-(2-hydroxyphenyl)pyridazin-4-yl]piperazine-1-carboxylate] | 2.5 to 10 nM | > 75%
Cc1ncsc1-c1ccc([C@H](C)NC(=O)[C@@H]2C[C@@H](O)CN2C(=O)[C@@H](c2cc(N3CCC(CN4CCC(O[C@H]5C[C@H](N6CCC(C(C)n7cc(/C=C/c8cc(-c9ccccc9O)nnc8N)cn7)CC6)C5)CC4)CC3)no2)C(C)C)cc1 (stereo partly drawn) [Compound 69, (2S,4R)-4-hydroxy-N-[(1S)-1-[4-(4-methyl-1,3-thiazol-5-yl)phenyl]ethyl]-1-[(2R)-3-methyl-2-{3-[4-({4-[(1r,3r)-3-[4-(1-{4-[(1E)-2-[3-amino-6-(2-hydroxyphenyl)pyridazin-4-yl]ethenyl]-1H-pyrazol-1-yl}ethyl)piperidin-1-yl]cyclobutoxy]piperidin-1-yl}methyl)piperidin-1-yl]-1,2-oxazol-5-yl}butanoyl]pyrrolidine-2-carboxamide] | < 2.5 nM | > 75%
Cc1ncsc1-c1ccc([C@H](C)NC(=O)[C@@H]2C[C@@H](O)CN2C(=O)[C@H](c2cc(N3CCC(CN4CCC(O[C@H]5C[C@H](Oc6cc(N7C8CCC7CN(c7cc(-c9ccccc9O)nnc7N)C8)ccn6)C5)CC4)CC3)no2)C(C)C)c(N)c1 [Compound 5, (2S,4R)-N-[(1S)-1-[2-amino-4-(4-methyl-1,3-thiazol-5-yl)phenyl]ethyl]-4-hydroxy-1-[(2S)-3-methyl-2-{3-[4-({4-[(1r,3r)-3-[(4-{3-[3-amino-6-(2-hydroxyphenyl)pyridazin-4-yl]-3,8-diazabicyclo[3.2.1]octan-8-yl}pyridin-2-yl)oxy]cyclobutoxy]piperidin-1-yl}methyl)piperidin-1-yl]-1,2-oxazol-5-yl}butanoyl]pyrrolidine-2-carboxamide] | ≥ 30 nM | –
CC(C)[C@@H](C(=O)N1C[C@H](O)C[C@H]1C(=O)N[C@@H](C)c1ccc(C#N)cc1)c1cc(N2CCC(CN3CC[C@@H](Oc4cc(N5C6CCC5CN(c5cc(-c7ccccc7O)nnc5N)C6)ccn4)C(F)(F)C3)CC2)no1 [Compound 147, (2S,4R)-1-[(2R)-2-[3-(4-{[(4R)-4-[(4-{3-[3-amino-6-(2-hydroxyphenyl)pyridazin-4-yl]-3,8-diazabicyclo[3.2.1]octan-8-yl}pyridin-2-yl)oxy]-3,3-difluoropiperidin-1-yl]methyl}piperidin-1-yl)-1,2-oxazol-5-yl]-3-methylbutanoyl]-N-[(1S)-1-(4-cyanophenyl)ethyl]-4-hydroxypyrrolidine-2-carboxamide] | 2.5 to 10 nM | > 75%
CC(C)[C@H](C(=O)N1C[C@H](O)C[C@H]1C(=O)N[C@@H](C)c1ccc(-c2scnc2C#CCOCCOCCOc2cc(N3C4CCC3CN(c3cc(-c5ccccc5O)nnc3N)C4)ccn2)cc1)N1Cc2ccccc2C1=O [Compound 86] | 2.5 to 10 nM | > 75%
Cc1ncsc1-c1ccc([C@H](CC(=O)N2CCC(CN3CCC(O[C@H]4C[C@H](Oc5cc(N6C7CCC6CN(c6cc(-c8ccccc8O)nnc6N)C7)ccn5)C4)CC3)CC2)NC(=O)[C@@H]2C[C@@H](O)CN2C(=O)[C@H](C(C)C)N2Cc3ccccc3C2=O)cc1 [Compound 38, (2S,4R)-4-hydroxy-N-[(1S)-1-[4-(4-methyl-1,3-thiazol-5-yl)phenyl]-3-oxo-3-[4-({4-[(1r,3r)-3-[(4-{3-[3-amino-6-(2-hydroxyphenyl)pyridazin-4-yl]-3,8-diazabicyclo[3.2.1]octan-8-yl}pyridin-2-yl)oxy]cyclobutoxy]piperidin-1-yl}methyl)piperidin-1-yl]propyl]-1-[(2S)-3-methyl-2-(1-oxo-2,3-dihydro-1H-isoindol-2-yl)butanoyl]pyrrolidine-2-carboxamide] | < 2.5 nM | > 75%
Cc1ncsc1-c1ccc([C@H](C)NC(=O)[C@@H]2C[C@@H](O)CN2C(=O)[C@H](c2cc(N3CCC(OC(=O)N4CCC(O[C@H]5C[C@H](Oc6cc(N7C8CCC7CN(c7cc(-c9ccccc9O)nnc7N)C8)ccn6)C5)CC4)CC3)no2)C(C)C)cc1 [Compound 116, 1-{5-[(2S)-1-[(2S,4R)-4-hydroxy-2-([(1S)-1-[4-(4-methyl-1,3-thiazol-5-yl)phenyl]ethyl]carbamoyl}pyrrolidin-1-yl]-3-methyl-1-oxobutan-2-yl]-1,2-oxazol-3-yl}piperidin-4-yl 4-[(1r,3r)-3-[(4-{3-[3-amino-6-(2-hydroxyphenyl)pyridazin-4-yl]-3,8-diazabicyclo[3.2.1]octan-8-yl}pyridin-2-yl)oxy]cyclobutoxy]piperidine-1-carboxylate] | < 2.5 nM | > 75%
